Source: US11904051B2, “Shear stress sensitive liposomes” (Universität Basel, priority 2018, dated 2024)

Assay: Spatially resolved SAXS of liposomes under dynamic (flow/shear) condition in microfluidic device
Type: physicochemical
Experimental: The measurement in glass capillaries provided the fingerprint of Pad-PC-Pad liposome structure in static condition. In order to investigate the behavior of Pad-PC-Pad liposomes under an external perturbation, such as a shear stress gradient, 2D raster SAXS scans of Pad-PC-Pad liposomes under flow conditions, produced in a microfluidic device, were recorded. Three flow velocities v were tested: v=0.002; 0.02; and 0.2 μL/s. The corresponding shear rates were determined using Eq. 1. From the lowest to the highest flow rate, the shear rates in the constriction (h=250 μm, w=125 μm) were=1.54, 15.4, and 154.0 s^−1, whereas in the wide region (h=250 μm, w=1000 μm) they corresponded to =0.2 s^−1, 2.0 s^−1, and 20.0 s^−1 2 D maps of the mean scattering intensity in the range Δq=0:096 to 0:102 nm^−1 corresponding to a real space range Δd=65.4 to 61.6 nm between the overall size and the size of the phospholipid head-to-head distance are shown in FIG. 12.
The local modifications of the averaged scattering intensity distribution observed in the 2D scanning SAXS maps of FIG. 12 supported the selection of seven regions of the micro fluidic device, as shown in the sketch of FIG. 13. Three regions were selected before the constriction: one far (#1), one approaching (#2), and one very close (A); symmetrically, on the outlet side, three areas were chosen one very close (B), one close (#4), and one far from the constriction (#5). Region #3 was selected in the constriction avoiding the edges of the device. For each region, the radially integrated scattering intensity I as a function of the scattering vector q at each flow rate v is shown.
The spatially resolved SAXS measurements were performed at the cSAXS beamline at the Swiss Light Source (PSI, Villigen, Switzerland). The X-ray beam was focused to 25 μm×50 μm (vertical×horizontal) spot size at the specimen location, the photon energy was set to 11:2 keV (λ=1:1 Å), and the sample-detector distance to 7:102 m, determined by the first scattering order of a silver behenate specimen. The scattering signal was recorded using the Pilatus 2M detector (Kraftet al., J. Synchrotron Radiat. 2009, 16, 368-375) (pixel size: 172 μm_×172 μm). Dynamic spatially resolved SAXS measurements of the liposomal suspensions were performed using microfluidic devices mounted on an aluminum/polyetheretherketone/aluminum sample holder. Two-dimensional (2D) scans were realized line-by-line by continuously moving the device in horizontal direction, while the detector recorded the data in burst mode. 48 (v)×96 (h) points at step size 25 μm (v)×50 μm (h) were acquired in a pre-selected region of the microfluidic device with an exposure time of 1:5 s per point. The data were processed using the Matlab package available from the beamline (https://www.psi.ch/sls/csaxs/software). During the experiment, the flow rates were adjusted using a syringe pump system (Nemesys, Cetoni GmbH, Korbussen, Germany) connected to the microchannel using polytetrafluoroethylene (PTFE) tubing. For the point-wise background correction, the scattering signal of ultra-pure water in the microfluidic device for all the measured flow rates was recorded before the acquisition of the SAXS signal of the liposomal suspensions. For the microfluidic device with a rectangular channel cross-section, the wall shear rates were calculated from the volumetric flow rates v using the following equation: (Molloy et al., Journal of Thrombosis and Haemostasis 2016, 15, 972-982) λ=6v=h^2w (1) with the shear rate [s^−1], v the volumetric flow rate [μL/s], and w and h the width and height [μm] of the channel, respectively.

[1] = flow rate 0.002 pL/s, position #1
[2] = flow rate 0.002 pL/s, position #2
[3] = flow rate 0.002 pL/s, position #3 (constriction)
[4] = flow rate 0.002 pL/s, position #4
[5] = flow rate 0.002 pL/s, position #5
[6] = flow rate 0.002 pL/s, position A
[7] = flow rate 0.002 pL/s, position B
[8] = flow rate 0.02 pL/s, position #1
[9] = flow rate 0.02 pL/s, position #2
[10] = flow rate 0.02 pL/s, position #3 (constriction)
[11] = flow rate 0.02 pL/s, position #4
[12] = flow rate 0.02 pL/s, position #5
[13] = flow rate 0.02 pL/s, position A
[14] = flow rate 0.02 pL/s, position B
[15] = flow rate 0.20 pL/s, position #1
[16] = flow rate 0.20 pL/s, position #2
[17] = flow rate 0.20 pL/s, position #3 (constriction)
[18] = flow rate 0.20 pL/s, position #4
[19] = flow rate 0.20 pL/s, position #5
[20] = flow rate 0.20 pL/s, position A
[21] = flow rate 0.20 pL/s, position B

CCCCCCCCCCCCCCCC(=O)NCC(CNC(=O)CCCCCCCCCCCCCCC)OP(=O)([O-])OCC[N+](C)(C)C [Pad-PC-Pad, 1,3-palmitoylamido-1,3-deoxy-sn-glycero-2-phosphatidylcholine]
Radius of gyration Rg [1]: 59.5 ± 0.2 nm
head-to-head distance dhh [1]: 3.4 ± 0.7 nm
Radius of gyration Rg [2]: 59.1 ± 0.1 nm
head-to-head distance dhh [2]: 3.1 ± 0.4 nm
Radius of gyration Rg [3]: 63.0 ± 0.5 nm
head-to-head distance dhh [3]: 3.9 ± 0.7 nm
Radius of gyration Rg [4]: 61.1 ± 0.2 nm
head-to-head distance dhh [4]: 3.9 ± 0.4 nm
Radius of gyration Rg [5]: 61.6 ± 0.2 nm
head-to-head distance dhh [5]: 3.8 ± 0.3 nm
Radius of gyration Rg [6]: 60.3 ± 0.4 nm
head-to-head distance dhh [6]: 3.4 ± 0.5 nm
Radius of gyration Rg [7]: 59.3 ± 0.9 nm
head-to-head distance dhh [7]: 4.0 ± 0.6 nm
Radius of gyration Rg [8]: 60.2 ± 0.2 nm
head-to-head distance dhh [8]: 3.4 ± 0.7 nm
Radius of gyration Rg [9]: 58.0 ± 0.4 nm
head-to-head distance dhh [9]: 2.9 ± 0.2 nm
Radius of gyration Rg [10]: 64.3 ± 0.6 nm
head-to-head distance dhh [10]: 3.5 ± 0.6 nm
Radius of gyration Rg [11]: 59.1 ± 0.3 nm
head-to-head distance dhh [11]: 3.6 ± 0.3 nm
Radius of gyration Rg [12]: 61.3 ± 0.1 nm
head-to-head distance dhh [12]: 3.9 ± 0.4 nm
Radius of gyration Rg [13]: 55.1 ± 0.5 nm
head-to-head distance dhh [13]: 2.9 ± 0.2 nm
Radius of gyration Rg [14]: 52.4 ± 0.8 nm
head-to-head distance dhh [14]: 4.3 ± 0.5 nm
Radius of gyration Rg [15]: 61.6 ± 0.4 nm
head-to-head distance dhh [15]: 3.4 ± 0.9 nm
Radius of gyration Rg [16]: 61.0 ± 0.5 nm
head-to-head distance dhh [16]: 3.4 ± 0.7 nm
Radius of gyration Rg [17]: 64.0 ± 0.8 nm
head-to-head distance dhh [17]: 3.8 ± 0.8 nm
Radius of gyration Rg [18]: 58.0 ± 0.3 nm
head-to-head distance dhh [18]: 4.0 ± 0.6 nm
Radius of gyration Rg [19]: 60.0 ± 0.4 nm
head-to-head distance dhh [19]: 4.0 ± 0.7 nm
Radius of gyration Rg [20]: 61.4 ± 0.6 nm
head-to-head distance dhh [20]: 3.2 ± 0.6 nm
Radius of gyration Rg [21]: 52.3 ± 0.9 nm
head-to-head distance dhh [21]: 4.4 ± 0.4 nm
